The text below walks through data of PubChem BioAssay AID248 (DTP/NCI, 2004).

The subject of this experiment is L1210 leukemia ip in BDF1 mice, survival T/C. In words: NCI In Vivo Anticancer Drug Screen. Data for tumor model L1210 Leukemia (intraperitoneal) in B6D2F1 (BDF1) mice. The settings on record: endpoint: mean survival time, higher = longer survival. The procedure, abridged: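 Tumor cells were implanted, animals were treated, and survival was followed. The result divides the treated measurement by the vehicle-control measurement.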

The mark [1] stands for this setting: dose: 100.0 mg/kg/injection, schedule: Q04DX002 (ip), vehicle: Klucel (hydroxypropylcellulose) (HPC).
[2] abbreviates: dose: 100.0 mg/kg/injection, schedule: Q04DX003 (ip), vehicle: saline with Tween-80.
Where [3] appears, read: dose: 200.0 mg/kg/injection, schedule: Q04DX002 (ip), vehicle: Klucel (hydroxypropylcellulose) (HPC).
Where [4] appears, read: dose: 200.0 mg/kg/injection, schedule: Q04DX003 (ip), vehicle: saline with Tween-80.
Where [5] appears, read: dose: 400.0 mg/kg/injection, schedule: Q04DX002 (ip), vehicle: Klucel (hydroxypropylcellulose) (HPC).
[6] abbreviates: dose: 400.0 mg/kg/injection, schedule: Q04DX003 (ip), vehicle: saline with Tween-80.

Values joined by “and” are separate entries in the source; they are usually repeats but may differ in a detail not shown here. Identical values can stand only once. Inconclusive results and toxic doses are left out.

On to `C1COB(OCCNCCOB2OCCNCCO2)OCCN1`, for which the T/C reads like this: (dose: 100.0 mg/kg/injection, schedule: Q01DX009 (ip), vehicle: carboxymethylcellulose (CMC)) 100 % of control; (dose: 100.0 mg/kg/injection, schedule: Q04DX002 (ip), vehicle: carboxymethylcellulose (CMC)) 98 % of control and 101 % of control; (dose: 100.0 mg/kg/injection, schedule: Q04DX003 (ip), vehicle: carboxymethylcellulose (CMC)) 100 % of control; (dose: 200.0 mg/kg/injection, schedule: Q01DX009 (ip), vehicle: carboxymethylcellulose (CMC)) 97 % of control and 106 % of control; (dose: 200.0 mg/kg/injection, schedule: Q04DX002 (ip), vehicle: carboxymethylcellulose (CMC)) 95 % of control and 103 % of control; (dose: 200.0 mg/kg/injection, schedule: Q04DX003 (ip), vehicle: carboxymethylcellulose (CMC)) 104 % of control. The T/C by setting is: (dose: 400.0 mg/kg/injection, schedule: Q01DX009 (ip), vehicle: carboxymethylcellulose (CMC)) 100 % of control; (dose: 400.0 mg/kg/injection, schedule: Q04DX002 (ip), vehicle: carboxymethylcellulose (CMC)) 103 % of control and 106 % of control; (dose: 400.0 mg/kg/injection, schedule: Q04DX003 (ip), vehicle: carboxymethylcellulose (CMC)) 100 % of control.
In the case of `C(=C\SCc1ccccc1)/SCc1ccccc1`, the T/C under setting [1] was 103 % of control; the T/C under setting [2] is 97 % of control; the T/C under setting [3] is 103 % of control; the T/C under setting [4] is 101 % of control; the T/C under setting [5] is 96 % of control; the T/C under setting [6] is 102 % of control.
As for `O=C1NC(=S)S/C1=C\c1ccc([N+](=O)[O-])cc1`, the T/C (dose: 100.0 mg/kg/injection, schedule: Q01DX001 (ip), vehicle: saline) was 90 % of control.
Consider `OCC1OC(n2ccc3cncnc32)C(O)C1O` (stereo unspecified), for which the T/C by setting is: (dose: 5.0 mg/kg/injection, schedule: Q01DX001 (ip), vehicle: saline) 106 % of control; (dose: 10.0 mg/kg/injection, schedule: Q01DX001 (ip), vehicle: saline) 109 % of control; (dose: 20.0 mg/kg/injection, schedule: Q01DX001 (ip), vehicle: saline) 106 % of control; (dose: 40.0 mg/kg/injection, schedule: Q01DX001 (ip), vehicle: saline) 106 % of control.
With `c1ccc(-c2n[nH]c(-c3ccccc3)c2-c2ccccc2)cc1`, the T/C runs as follows: under setting [2], 92 % of control; under setting [4], 100 % of control; under setting [6], 95 % of control.
Take `Cn1c(N)c(C=O)c(=O)n(C)c1=O`: the T/C is, setting by setting: (dose: 12.5 mg/kg/injection, schedule: Q04DX003 (ip), vehicle: Klucel (hydroxypropylcellulose) (HPC)) 95 % of control; (dose: 25.0 mg/kg/injection, schedule: Q04DX003 (ip), vehicle: Klucel (hydroxypropylcellulose) (HPC)) 105 % of control; (dose: 50.0 mg/kg/injection, schedule: Q04DX003 (ip), vehicle: Klucel (hydroxypropylcellulose) (HPC)) 96 % of control.
As for `CCCCNc1c(C(=O)OCC)c[nH]c(=O)c1C(C)=O`, the T/C was 97 % of control (dose: 100.0 mg/kg/injection, schedule: Q04DX003 (ip), vehicle: Klucel (hydroxypropylcellulose) (HPC)); 97 % of control (dose: 200.0 mg/kg/injection, schedule: Q04DX003 (ip), vehicle: Klucel (hydroxypropylcellulose) (HPC)); 87 % of control (dose: 400.0 mg/kg/injection, schedule: Q04DX003 (ip), vehicle: Klucel (hydroxypropylcellulose) (HPC)).
On to `COc1cc(C(=O)O)c(C(=O)O)cc1OC`, for which the T/C runs as follows: (dose: 12.5 mg/kg/injection, schedule: Q01DX001 (ip), vehicle: Klucel (hydroxypropylcellulose) (HPC)) 104 % of control; (dose: 12.5 mg/kg/injection, schedule: Q01DX009 (ip), vehicle: saline) 101 % of control; (dose: 25.0 mg/kg/injection, schedule: Q01DX001 (ip), vehicle: Klucel (hydroxypropylcellulose) (HPC)) 108 % of control; (dose: 25.0 mg/kg/injection, schedule: Q01DX009 (ip), vehicle: saline) 103 % of control; (dose: 50.0 mg/kg/injection, schedule: Q01DX001 (ip), vehicle: Klucel (hydroxypropylcellulose) (HPC)) 101 % of control; (dose: 50.0 mg/kg/injection, schedule: Q01DX009 (ip), vehicle: saline) 104 % of control. Moreover, the T/C by setting is: (dose: 75.0 mg/kg/injection, schedule: Q01DX009 (ip), vehicle: Klucel (hydroxypropylcellulose) (HPC)) 97 % of control; (dose: 115.0 mg/kg/injection, schedule: Q01DX009 (ip), vehicle: Klucel (hydroxypropylcellulose) (HPC)) 100 % of control; (dose: 170.0 mg/kg/injection, schedule: Q01DX009 (ip), vehicle: Klucel (hydroxypropylcellulose) (HPC)) 100 % of control; (dose: 400.0 mg/kg/injection, schedule: Q01DX001 (ip), vehicle: Klucel (hydroxypropylcellulose) (HPC)) 88 % of control.
For `Clc1ccc2c(c1)C1c3ccccc3C2C2c3ccccc3C1c1ccccc12` (stereo unspecified), the T/C was 117 % of control (dose: 50.0 mg/kg/injection, schedule: Q04DX002 (ip), vehicle: Klucel (hydroxypropylcellulose) (HPC)); 102 % of control under setting [1]; 95 % of control and 88 % of control under setting [3]; 88 % of control under setting [5].
With `O=C(COc1ccc(Cl)cc1)C1CSc2ccc3ccccc3c21` (stereo unspecified), the T/C was 88 % of control (dose: 100.0 mg/kg/injection, schedule: Q04DX003 (ip), vehicle: saline sonified); 89 % of control (dose: 200.0 mg/kg/injection, schedule: Q04DX003 (ip), vehicle: saline sonified); 88 % of control (dose: 400.0 mg/kg/injection, schedule: Q04DX003 (ip), vehicle: saline sonified).
On to `O=C(O)[C@@H]1C[C@H]1c1ccccc1`, for which the T/C by setting is: (dose: 25.0 mg/kg/injection, schedule: Q04DX002 (ip), vehicle: saline + alcohol) 100 % of control; (dose: 50.0 mg/kg/injection, schedule: Q04DX002 (ip), vehicle: saline + alcohol) 102 % of control; (dose: 100.0 mg/kg/injection, schedule: Q01DX009 (ip), vehicle: saline with Tween-80) 89 % of control; (dose: 100.0 mg/kg/injection, schedule: Q04DX002 (ip), vehicle: saline + alcohol) 109 % of control; (dose: 100.0 mg/kg/injection, schedule: Q04DX002 (ip), vehicle: saline with Tween-80) 114 % of control; (dose: 200.0 mg/kg/injection, schedule: Q01DX009 (ip), vehicle: saline with Tween-80) 87 % of control. The T/C (dose: 400.0 mg/kg/injection, schedule: Q01DX009 (ip), vehicle: saline with Tween-80) is 92 % of control.
Take `CC(C)(C)C1CCC(NC(=O)N(CCCl)N=O)CC1` (stereo unspecified): the T/C (dose: 16.0 mg/kg/injection, schedule: Q01DX001 (ip), vehicle: other) is 116 % of control; the T/C (dose: 125.0 mg/kg/injection, schedule: Q01DX001 (ip), vehicle: other) was 198 % of control; the T/C (dose: 177.0 mg/kg/injection, schedule: Q01DX001 (ip), vehicle: other) is 264 % of control; the T/C (dose: 250.0 mg/kg/injection, schedule: Q01DX001 (ip), vehicle: other) was 259 % of control and 283 % of control; the T/C (dose: 354.0 mg/kg/injection, schedule: Q01DX001 (ip), vehicle: other) is 272 % of control; the T/C (dose: 375.0 mg/kg/injection, schedule: Q01DX001 (ip), vehicle: other) was 275 % of control. For the same molecule, the T/C reads like this: (dose: 500.0 mg/kg/injection, schedule: Q01DX001 (ip), vehicle: other) 200 % of control and 317 % of control; (dose: 708.0 mg/kg/injection, schedule: Q01DX001 (ip), vehicle: other) 106 % of control; (dose: 750.0 mg/kg/injection, schedule: Q01DX001 (ip), vehicle: other) 170 % of control and 252 % of control; (dose: 1000.0 mg/kg/injection, schedule: Q01DX001 (ip), vehicle: other) 86 % of control; (dose: 1250.0 mg/kg/injection, schedule: Q01DX001 (ip), vehicle: other) 219 % of control; (dose: 2000.0 mg/kg/injection, schedule: Q01DX001 (ip), vehicle: other) 98 % of control.
On to `C/C=C(\C)C(C#N)CCCC` (stereo unspecified), for which the T/C is 95 % of control (dose: 75.0 mg/kg/injection, schedule: Q01DX001 (ip), vehicle: carboxymethylcellulose (CMC)); 106 % of control (dose: 150.0 mg/kg/injection, schedule: Q01DX001 (ip), vehicle: carboxymethylcellulose (CMC)); 95 % of control (dose: 300.0 mg/kg/injection, schedule: Q01DX001 (ip), vehicle: carboxymethylcellulose (CMC)).
Consider `CCCCCCS(=O)(=O)c1n[nH]c(=O)[nH]c1=O`, for which the T/C is, setting by setting: (dose: 100.0 mg/kg/injection, schedule: Q01DX001 (ip), vehicle: other) 98 % of control; (dose: 200.0 mg/kg/injection, schedule: Q01DX001 (ip), vehicle: other) 95 % of control; (dose: 400.0 mg/kg/injection, schedule: Q01DX001 (ip), vehicle: other) 101 % of control.
